Tested on: RKO p21 uninduced (proliferating) colon adenocarcinoma cells
Assay: Alamar Blue cell viability assay, RKO p21 uninduced (proliferating)
Assay type: cell-based
Conditions: Homo sapiens, Table B3, anti-proliferative/cytotoxic activity, 72 hours, read-out: −log EC50 RKO p21 uninduced (proliferating) (converted)
Summary of the method: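 RKO p21 or p27 subclones grown without Ponasterone A, i.e. proliferating, exposed 24 h after seeding to semi-log compound dilutions in DMEM/10% FCS (1% DMSO controls) for 72 h at 37° C. Alamar Blue fluorescence (544/590 nm) read relative to untreated cells; EC50 from dose-response curves, given as −log EC50 (mol/l).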

**Q.** How did the EC50 turn out when `COCCNCCCN1C(=O)N2[C@H](c3cccc(O)c3)c3[nH]c4cc(F)c(Cl)cc4c3C[C@@]2(C)C1=O` (racemic) [Example 462, (3aSR,10RS)-6-Chloro-7-fluoro-10-(3-hydroxy-phenyl)-2-[3-(2-methoxy-ethylamino)-propyl]-3a-methyl-3a,4,9,10-tetrahydro-2,9,10a-triaza-cyclopenta[b]fluorene-1,3-dione] was run?
**A.** ≤ 0.0398 µM

**Q.** For `C[C@@]12Cc3c([nH]c4cc(F)c(Cl)cc34)[C@@H](c3cccc(O)c3)N1C(=O)N(CCCNC1CCC1)C2=O` (racemic) [Example 463, (3aSR,10RS)-6-Chloro-2-(3-cyclobutylamino-propyl)-7-fluoro-10-(3-hydroxy-phenyl)-3a-methyl-3a,4,9,10-tetrahydro-2,9,10a-triaza-cyclopenta[b]fluorene-1,3-dione], which EC50 is on record?
**A.** 0.0398 to 0.251 µM

**Q.** How did the EC50 turn out when `CC(C)(C)NCCCN1C(=O)N2[C@H](c3cccc(O)c3)c3[nH]c4cc(F)c(Cl)cc4c3C[C@@]2(C)C1=O` (racemic) [Example 464, (3aSR,10RS)-2-(3-tert-Butylamino-propyl)-6-chloro-7-fluoro-10-(3-hydroxy-phenyl)-3a-methyl-3a,4,9,10-tetrahydro-2,9,10a-triaza-cyclopenta[b]fluorene-1,3-dione] was run?
**A.** 0.0398 to 0.251 µM

**Q.** With `C=CCNCCCN1C(=O)N2[C@H](c3cccc(O)c3)c3[nH]c4cc(F)c(Cl)cc4c3C[C@@]2(C)C1=O` (racemic) [Example 465, (3aSR,10RS)-2-(3-Allylamino-propyl)-6-chloro-7-fluoro-10-(3-hydroxy-phenyl)-3a-methyl-3a,4,9,10-tetrahydro-2,9,10a-triaza-cyclopenta[b]fluorene-1,3-dione] as the molecule, how does the EC50 read?
**A.** 0.0398 to 0.251 µM

**Q.** `C#CCNCCCN1C(=O)N2[C@H](c3cccc(O)c3)c3[nH]c4cc(F)c(Cl)cc4c3C[C@@]2(C)C1=O` (racemic) [Example 466, (3aSR,10RS)-6-Chloro-7-fluoro-10-(3-hydroxy-phenyl)-3a-methyl-2-(3-prop-2-ynylamino-propyl)-3a,4,9,10-tetrahydro-2,9,10a-triaza-cyclopenta[b]fluorene-1,3-dione] was tested. Which EC50 did it give?
**A.** 0.0398 to 0.251 µM

**Q.** With `CCN(C)CCCN1C(=O)N2[C@H](c3cccc(O)c3)c3[nH]c4cc(F)c(Cl)cc4c3C[C@@]2(C)C1=O` (racemic) [Example 467, (3aSR,10RS)-6-Chloro-2-[3-(ethyl-methyl-amino)-propyl]-7-fluoro-10-(3-hydroxy-phenyl)-3a-methyl-3a,4,9,10-tetrahydro-2,9,10a-triaza-cyclopenta[b]fluorene-1,3-dione] as the molecule, how does the EC50 read?
**A.** ≤ 0.0398 µM

**Q.** `CN(CCO)CCCN1C(=O)N2[C@H](c3cccc(O)c3)c3[nH]c4cc(F)c(Cl)cc4c3C[C@@]2(C)C1=O` (racemic) [Example 468, (3aSR,10RS)-6-Chloro-7-fluoro-2-{3-[(2-hydroxy-ethyl)-methyl-amino]-propyl}-10-(3-hydroxy-phenyl)-3a-methyl-3a,4,9,10-tetrahydro-2,9,10a-triaza-cyclopenta[b]fluorene-1,3-dione] was tested. Which EC50 did it give?
**A.** ≤ 0.0398 µM

**Q.** How did the EC50 turn out when `CCN(CC)CCCN1C(=O)N2[C@H](c3cccc(O)c3)c3[nH]c4cc(F)c(Cl)cc4c3C[C@@]2(C)C1=O` (racemic) [Example 469, (3aSR,10RS)-6-Chloro-2-(3-diethylamino-propyl)-7-fluoro-10-(3-hydroxy-phenyl)-3a-methyl-3a,4,9,10-tetrahydro-2,9,10a-triaza-cyclopenta[b]fluorene-1,3-dione] was run?
**A.** ≤ 0.0398 µM

**Q.** With `CCN(CCO)CCCN1C(=O)N2[C@H](c3cccc(O)c3)c3[nH]c4cc(F)c(Cl)cc4c3C[C@@]2(C)C1=O` (racemic) [Example 470, (3aSR,10RS)-6-Chloro-2-{3-[ethyl-(2-hydroxy-ethyl)-amino]-propyl}-7-fluoro-10-(3-hydroxy-phenyl)-3a-methyl-3a,4,9,10-tetrahydro-2,9,10a-triaza-cyclopenta[b]fluorene-1,3-dione] as the molecule, how does the EC50 read?
**A.** ≤ 0.0398 µM

**Q.** How did the EC50 turn out when `CCN(CCCN1C(=O)N2[C@H](c3cccc(O)c3)c3[nH]c4cc(F)c(Cl)cc4c3C[C@@]2(C)C1=O)CCOC` (racemic) [Example 471, (3aSR,10RS)-6-Chloro-2-{3-[ethyl-(2-methoxy-ethyl)-amino]-propyl}-7-fluoro-10-(3-hydroxy-phenyl)-3a-methyl-3a,4,9,10-tetrahydro-2,9,10a-triaza-cyclopenta[b]fluorene-1,3-dione] was run?
**A.** 0.0398 to 0.251 µM

**Q.** With `C=CCN(C)CCCN1C(=O)N2[C@H](c3cccc(O)c3)c3[nH]c4cc(F)c(Cl)cc4c3C[C@@]2(C)C1=O` (racemic) [Example 472, (3aSR,10RS)-2-[3-(Allyl-methyl-amino)-propyl]-6-chloro-7-fluoro-10-(3-hydroyx-phenyl)-3a-methyl-3a,4,9,10-tetrahydro-2,9,10a-triaza-cyclopenta[b]fluorene-1,3-dione] as the molecule, how does the EC50 read?
**A.** 0.0398 to 0.251 µM

**Q.** `CC(C)N(C)CCCN1C(=O)N2[C@H](c3cccc(O)c3)c3[nH]c4cc(F)c(Cl)cc4c3C[C@@]2(C)C1=O` (racemic) [Example 474, (3aSR,10RS)-6-Chloro-7-fluoro-10-(3-hydroxy-phenyl)-2-[3-(isopropyl-methyl-amino)-propyl]-3a-methyl-3a,4,9,10-tetrahydro-2,9,10a-triaza-cyclopenta[b]fluorene-1,3-dione] was tested. Which EC50 did it give?
**A.** ≤ 0.0398 µM

**Q.** How did the EC50 turn out when `C[C@@]12Cc3c([nH]c4cc(F)c(Cl)cc34)[C@@H](c3cccc(O)c3)N1C(=O)N(CCCN1CCOCC1)C2=O` (racemic) [Example 475, (3aSR,10RS)-6-Chloro-7-fluoro-10-(3-hydroxy-phenyl)-3a-methyl-2-(3-morpholin-4-yl-propyl)-3a,4,9,10-tetrahydro-2,9,10a-triaza-cyclopenta[b]fluorene-1,3-dione] was run?
**A.** 0.0398 to 0.251 µM

**Q.** With `C[C@@]12Cc3c([nH]c4cc(F)c(Cl)cc34)[C@@H](c3cccc(O)c3)N1C(=O)N(CCCN1CCCC1)C2=O` (racemic) [Example 476, (3aSR,10RS)-6-Chloro-7-fluoro-10-(3-hydroxy-phenyl)-3a-methyl-2-(3-pyrrolidin-1-yl-propyl)-3a,4,9,10-tetrahydro-2,9,10a-triaza-cyclopenta[b]fluorene-1,3-dione] as the molecule, how does the EC50 read?
**A.** ≤ 0.0398 µM

**Q.** `C[C@@]12Cc3c([nH]c4cc(F)c(Cl)cc34)[C@@H](c3cccc(O)c3)N1C(=O)N(CCCN1CC=CC1)C2=O` (racemic) [Example 477, (3aSR,10RS)-6-Chloro-2-[3-(2,5-dihydro-pyrrol-1-yl)-propyl]-7-fluoro-10-(3-hydroxy-phenyl)-3a-methyl-3a,4,9,10-tetrahydro-2,9,10a-triaza-cyclopenta[b]fluorene-1,3-dione] was tested. Which EC50 did it give?
**A.** 0.0398 to 0.251 µM

**Q.** `C[C@@]12Cc3c([nH]c4cc(F)c(Cl)cc34)[C@@H](c3cccc(O)c3)N1C(=O)N(CCCN1CCCCC1)C2=O` (racemic) [Example 478, (3aSR,10RS)-6-Chloro-7-fluoro-10-(3-hydroxy-phenyl)-3a-methyl-2-(3-piperidin-1-yl-propyl)-3a,4,9,10-tetrahydro-2,9,10a-triaza-cyclopenta[b]fluorene-1,3-dione] was tested. Which EC50 did it give?
**A.** ≤ 0.0398 µM

**Q.** How did the EC50 turn out when `CC1CCN(CCCN2C(=O)N3[C@H](c4cccc(O)c4)c4[nH]c5cc(F)c(Cl)cc5c4C[C@@]3(C)C2=O)CC1` (racemic) [Example 479, (3aSR,10RS)-6-Chloro-7-fluoro-10-(3-hydroxy-phenyl)-3a-methyl-2-[3-(4-methyl-piperidin-1-yl)-propyl]-3a,4,9,10-tetrahydro-2,9,10a-triaza-cyclopenta[b]fluorene-1,3-dione] was run?
**A.** 0.0398 to 0.251 µM

**Q.** For `C[C@@]12Cc3c([nH]c4cc(F)c(Cl)cc34)[C@@H](c3cccc(O)c3)N1C(=O)N(CCCN1CC=CCC1)C2=O` (racemic) [Example 480, (3aSR,10RS)-6-Chloro-2-[3-(3,6-dihydro-2H-pyridin-1-yl)-propyl]-7-fluoro-10-(3-hydroxy-phenyl)-3a-methyl-3a,4,9,10-tetrahydro-2,9,10a-triaza-cyclopenta[b]fluorene-1,3-dione], which EC50 is on record?
**A.** 0.0398 to 0.251 µM

**Q.** With `CN1CCN(CCCN2C(=O)N3[C@H](c4cccc(O)c4)c4[nH]c5cc(F)c(Cl)cc5c4C[C@@]3(C)C2=O)CC1` (racemic) [Example 481, (3aSR,10RS)-6-Chloro-7-fluoro-10-(3-hydroxy-phenyl)-3a-methyl-2-[3-(4-methyl-piperazin-1-yl)-propyl]-3a,4,9,10-tetrahydro-2,9,10a-triaza-cyclopenta[b]fluorene-1,3-dione] as the molecule, how does the EC50 read?
**A.** 0.0398 to 0.251 µM

**Q.** Which EC50 does the source give for `CC(=O)N1CCN(CCCN2C(=O)N3[C@H](c4cccc(O)c4)c4[nH]c5cc(F)c(Cl)cc5c4C[C@@]3(C)C2=O)CC1` (racemic) [Example 482, (3aSR,10RS)-2-[3-(4-Acetyl-piperazin-1-yl)-propyl]-6-chloro-7-fluoro-10-(3-hydroxy-phenyl)-3a-methyl-3a,4,9,10-tetrahydro-2,9,10a-triaza-cyclopenta[b]fluorene-1,3-dione] here?
**A.** 0.0398 to 0.251 µM

**Q.** `C[C@@]12Cc3c([nH]c4cc(F)c(Cl)cc34)[C@@H](c3cccc(O)c3)N1C(=O)N(CCCN1CCCCCC1)C2=O` (racemic) [Example 483, (3aSR,10RS)-2-(3-Azepan-1-yl-propyl)-6-chloro-7-fluoro-10-(3-hydroyx-phenyl)-3a-methyl-3a,4,9,10-tetrahydro-2,9,10a-triaza-cyclopenta[b]fluorene-1,3-dione] was tested. Which EC50 did it give?
**A.** 0.0398 to 0.251 µM

**Q.** `COc1ccc2[nH]c3c(c2c1)C[C@@]1(C)C(=O)N(CCCCl)C(=O)N1[C@@H]3c1cccc(O)c1` [Example 55a, (3aS,10R)-2-(3-Chloro-propyl)-10-(3-hydroxy-phenyl)-6-methoxy-3a-methyl-3a,4,9,10-tetrahydro-2,9,10a-triaza-cyclopenta[b]fluorene-1,3-dione] was tested. Which EC50 did it give?
**A.** 0.0398 to 0.251 µM

**Q.** `COc1cc2c3c([nH]c2cc1F)[C@@H](c1cccc(O)c1)N1C(=O)N(CCNCCO)C(=O)[C@]1(C)C3` [Example 245, (3aS,10R)-7-Fluoro-2-[2-(2-hydroxy-ethylamino)-ethyl]-10-(3-hydroxy-phenyl)-6-methoxy-3a-methyl-3a,4,9,10-tetrahydro-2,9,10a-triaza-cyclopenta[b]fluorene-1,3-dione] was tested. Which EC50 did it give?
**A.** 0.0398 to 0.251 µM

Reference: patent US8530493B2, “Indolopyridines as Eg5 kinesin modulators” (4SC AG, priority 2006, dated 2013)
